Results taken from patent US20030087243A1, “Diagnosis, prognosis and treatment of cancer related to the Barx2 gene” (priority 1999, published 2003).

Experiments:
Assay type in all cases: cell-based, human
PEO4 = experiment: Cisplatin resistance of PEO4 cell line relative to PEO1; conditions: PEO4, derived after relapse following high dose cisplatin in vivo
Text: (§1) In FIG. 4, the 5′ end (F1R1) and the 3′ end (F3R3) of the BarX2 transcript are amplified by RT-PCR using the primers given. PEO1, PEO4, PEO6 and PEOCDDP are four cell lines derived from a patient with ovarian cancer. […] Another cell line PEO4 was derived from the same patient when they relapsed again after treatment with high dose cisplatin chemotherapy in vivo. This cell line is approx four-fold resistant relative to PEO1.

PEO1CDDP [1] = experiment: 12 day growth inhibition assay with cisplatin, PEO1CDDP with and without Barx2 transfection; conditions: across the cisplatin concentration range
PEO1 = experiment: 12 day growth inhibition assay with cisplatin, PEO1 with and without Barx2 transfection; conditions: PEO1, across the cisplatin concentration range
Text: (§2) Transfection of BARX2 into OVCAR3, OAW42, PEO1 and PEO1-CDDP suppresses cell growth. In OAW42, this is accompanied by suppression of matrigel invasion, cell migration and adhesion and partial G1/S-phase block. […] This is consistent with recent thinking for molecular mechanisms of cytotoxicity in clinical cancer, and clonogenic assays are shown in FIG. 35.

[2] = system: PEO1 cisplatin sensitive and resistant cell lines; experiment: Annexin-V-FACS apoptosis after cisplatin
Procedure: Flow-cytometric detection of phosphatidylserine expression in cell lines and MHCs was performed according to the manufacturer's method using the Fluorescein labelled Annexin-V Apoptosis Detection Kit (R&D systems) (Vermes et al, 1995). The measure of early apoptosis derives from the assessment of the proportion of Annexin-V positives Propidium Iodide negative cells.
as §2

[3] = system: PEO1CDDP transfectant cell lines; experiment: Clonogenic assay of PEO1CDDP transfectants after cisplatinum exposure; conditions: CB1.3, CB3.6 vs CH1.1, CH2.2; 3 day exposure, 1.0 μM cisplatinum; p<0.0001
Procedure: FIG. 35. The PEO1CCDP pBABE Hygromycin control transfectant cell lines CH1.1 and CH2.2, and the PEO1CDDP pBABE BARX2 transfectant cell lines CB1.3 and CB3.6, were assayed for survival at day 12 following 3 day exposure to 0 μM, 1.0 μM and 2.0 μM cisplatinum in a clonogenic assay.

PEO1 CDDP cell line = experiment: Cisplatin resistance of PEO1 CDDP cell line relative to PEO1; conditions: developed by exposing PEO1 to cisplatinum in vitro
Text: as §1

PEO1CDDP [4] = experiment: Growth (cell counts) of PEO1CDDP transfectant clones exposed to cisplatinum; conditions: day 13
Procedure: We tested whether the introduction of Barx2 into PEO1CDDP altered its sensitivity to cisplatinum. 25000 cells were plated. Two days later, varying concentrations of cisplatinum were applied for 3 days, and then removed. Refeeding of the cells was performed every three days until day 13 with cell counts performed every three days.
CH1.1 is a control PEO1CDDP derivative clone that has been transfected with the pBabe Hygro empty vector (the same vector into which BarX2 was cloned) and behave as the parent line. CB3.6 is a BarX2 transfected growth suppressed clone. Both are exposed to increasing concentrations of cisplatinum.
The result of this experiment is seen particularly at the 1 μM cisplatinum concentration. Compared with no cisplatinum, the control cell line grows to 85% control at 1 μM cisplatinum at day 13. At the same timepoint and concentration of platinum, the BarX2 transfected platinum resistant cell line grows to only 69% of control. This increase in platinum sensitivity (or reduction in resistance) upon BarX2 transfection is consistent with the observed aberrant expression of the 5′ BarX2 transcript noted by RT-PCR in the PEO series of cell lines. Whether BarX2 induces sensitivity, reduces resistance, or both is not understood and the underlying mechanism is currently being explored.

Barx2 = experiment: Azacytidine demethylation, Barx2 re-expression in OAW42; conditions: OAW42, 96 hours, 0.5 μM azacytidine
Procedure: OAW42 was exposed to 5-azacytidine for 96 hours at different concentrations. […] Feint expression is seen for barx2 in OAW42 control, but strong induction of barx2 expression is seen at 0.5 μM azacytidine relative to actin signal.
OAW42 was exposed to 5-azacytidine for 96 hours at different concentrations.

N.N.[Cl][Pt][Cl] [cisplatin]
resistance relative to PEO1 (PEO4): approx four
increase of platinum sensitivity by Barx2 transfection (PEO1CDDP [1]): six
change of sensitivity to cisplatin as a result of Barx2 transfection (PEO1): not significantly altered
apoptosis, sensitive versus resistant cell lines ([2]; 1.5 or 5 micromolar cisplatin, between 1 hr and 40 hr): no significant differences
apoptosis in response to cisplatin in BARX2 transfected cells ([2]; BARX2 transfected PEO1 and PEO1-CDDP): no increase in apoptosis
increase in platinum sensitivity following BARX2 transfection (survival at day 12) [3]: statistically significant
resistance to cisplatin relative to PEO1 (PEO1 CDDP cell line): 18 fold
growth compared with no cisplatinum (PEO1CDDP [4]; BarX2 transfected clone CB3.6, 1 μM cisplatinum for 3 days): 69%
growth compared with no cisplatinum (PEO1CDDP [4]; control clone CH1.1 (pBabe Hygro empty vector), 1 μM cisplatinum for 3 days): 85%

Nc1ncn([C@@H]2O[C@H](CO)[C@@H](O)[C@H]2O)c(=O)n1 [5-azacytidine]
induction of Barx2 expression (Barx2): Clear induction
